Experimental findings from patent US20230092890A1, “1, 3, 4-Oxadiazole derivative compounds as histone deacetylase 6 inhibitor, and the pharmaceutical composition comprising the same” (Chong Kun Dang Pharmaceutical Corp., priority 2019, published 2023) are described below.

For one assay, the target named is T1, HDAC6 human recombinant (Homo sapiens, UniProt Q9UBN7).
T1 construct: purchased Calbiochem 382180
T1 sequence (Q9UBN7 1-1215): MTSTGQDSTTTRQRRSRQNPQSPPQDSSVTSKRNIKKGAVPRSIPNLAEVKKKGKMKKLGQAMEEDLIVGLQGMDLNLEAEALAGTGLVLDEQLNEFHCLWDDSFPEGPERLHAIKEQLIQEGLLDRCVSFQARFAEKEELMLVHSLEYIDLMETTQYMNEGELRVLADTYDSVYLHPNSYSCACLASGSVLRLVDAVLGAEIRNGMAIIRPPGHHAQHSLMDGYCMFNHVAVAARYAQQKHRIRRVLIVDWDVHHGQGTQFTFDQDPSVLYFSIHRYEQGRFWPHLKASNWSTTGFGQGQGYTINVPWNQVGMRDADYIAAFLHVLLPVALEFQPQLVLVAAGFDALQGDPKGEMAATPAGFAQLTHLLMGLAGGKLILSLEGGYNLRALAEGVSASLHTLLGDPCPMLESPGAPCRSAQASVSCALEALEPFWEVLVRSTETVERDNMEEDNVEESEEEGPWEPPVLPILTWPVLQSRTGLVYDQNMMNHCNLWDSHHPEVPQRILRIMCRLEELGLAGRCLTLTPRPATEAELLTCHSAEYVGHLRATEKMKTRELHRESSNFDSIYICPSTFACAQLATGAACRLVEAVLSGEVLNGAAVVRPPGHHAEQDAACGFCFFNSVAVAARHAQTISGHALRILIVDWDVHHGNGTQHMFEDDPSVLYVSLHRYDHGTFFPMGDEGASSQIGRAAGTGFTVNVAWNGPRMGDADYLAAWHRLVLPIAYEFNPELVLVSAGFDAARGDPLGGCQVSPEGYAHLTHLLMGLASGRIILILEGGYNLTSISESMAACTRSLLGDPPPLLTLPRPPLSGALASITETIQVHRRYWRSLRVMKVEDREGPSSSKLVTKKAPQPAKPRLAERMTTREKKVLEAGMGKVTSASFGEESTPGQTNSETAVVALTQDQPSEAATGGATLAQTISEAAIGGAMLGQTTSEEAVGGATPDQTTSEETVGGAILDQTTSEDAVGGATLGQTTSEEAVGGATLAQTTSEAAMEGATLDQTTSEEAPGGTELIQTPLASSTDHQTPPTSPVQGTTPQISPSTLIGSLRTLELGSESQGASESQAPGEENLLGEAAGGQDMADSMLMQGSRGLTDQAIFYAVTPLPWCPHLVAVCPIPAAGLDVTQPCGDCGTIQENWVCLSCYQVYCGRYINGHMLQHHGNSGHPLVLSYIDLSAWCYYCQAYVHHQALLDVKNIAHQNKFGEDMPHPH
As to the kind of experiment: HDAC enzyme activity inhibition (in vitro), HDAC6 assay. Format: biochemical. A digest of the protocol: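 HDAC6 human recombinant enzyme with fluorimetric substrate; […]. Reaction 60 min at 37° C, then developer 30 min at 37° C; fluorescence read at Ex 390/Em 460.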

A further assay concerns the target T2, HDAC1 (Homo sapiens, UniProt Q13547).
T2 construct: purchased Enzolifesciences BML-AK511
The assay can be described thus: HDAC enzyme activity inhibition (in vitro), HDAC1 Fluorimetric Drug Discovery Assay Kit. Format: biochemical. The method in brief:
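Compounds at 100, 1000, 10000 nM (HDAC1) or 0.1, 1, 10, 100, 1000 nM (HDAC6); 37° C, 60 min; developer, 37° C, 30 min; fluorescence Ex 390/Em 460.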

The mark [1] stands for this setting: samples at 0.1, 1, 10, 100 and 1000 nM, 37° C. 60 minutes, fluorescence Ex 390, Em 460, read-out: HDAC6 IC50.
[2] abbreviates: samples at 100, 1000 and 10000 nM, 37° C. 60 minutes, fluorescence Ex 390, Em 460, read-out: HDAC1 IC50.

Like-named read-outs stand apart in the source and are kept apart here.

T2 sequence (Q13547 whole entry): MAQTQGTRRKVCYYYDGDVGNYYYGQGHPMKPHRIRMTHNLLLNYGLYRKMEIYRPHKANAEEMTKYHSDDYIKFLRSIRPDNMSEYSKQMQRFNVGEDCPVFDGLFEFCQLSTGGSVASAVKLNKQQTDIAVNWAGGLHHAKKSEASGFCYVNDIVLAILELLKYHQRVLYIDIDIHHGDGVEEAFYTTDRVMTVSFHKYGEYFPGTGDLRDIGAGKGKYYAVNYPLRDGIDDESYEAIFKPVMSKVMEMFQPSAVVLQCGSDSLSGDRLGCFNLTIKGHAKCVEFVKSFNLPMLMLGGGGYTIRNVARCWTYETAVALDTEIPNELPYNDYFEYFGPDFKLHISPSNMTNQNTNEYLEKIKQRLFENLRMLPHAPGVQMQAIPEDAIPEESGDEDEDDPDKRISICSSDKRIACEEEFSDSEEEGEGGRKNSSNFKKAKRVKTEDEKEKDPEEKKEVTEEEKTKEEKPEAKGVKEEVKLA

As usually defined, the IC50 is the concentration at which inhibition is half-maximal. On to `O=c1oc2cc(Cl)c(-c3cccnc3)cc2n1Cc1ccc(-c2nnc(C(F)F)o2)cn1` [Compound 229, 6-chloro-3-((5-(5-(difluoromethyl)-1,3,4-oxadiazole-2-yl)pyridine-2-yl)methyl)-5-(pyridine-3-yl)benzo[d]oxazole-2(3H)-one], for which the IC50 at HDAC6 human recombinant (setting [1]) was 312 nM; at HDAC1 (setting [2]) it was more than 10000 nM.
For `O=c1sc2cc(Br)ccc2n1Cc1ccc(-c2nnc(C(F)F)o2)cn1` [Compound 230, 6-bromo-3-((5-(5-(difluoromethyl)-1,3,4-oxadiazole-2-yl)pyridine-2-yl)methyl)benzo[d]thiazole-2(3H)-one], in that order: 16 nM and more than 10000 nM.
The like results for `O=c1sc2cc(-c3cccnc3)ccc2n1Cc1ccc(-c2nnc(C(F)F)o2)cn1` [Compound 231, 3-((5-(5-(difluoromethyl)-1,3,4-oxadiazole-2-yl)pyridine-2-yl)methyl)-6-(pyridine-3-yl) benzo[d]thiazole-2(3H)-one] were, in that order, 9 nM and more than 10000 nM.
As to `O=c1n(Cc2ccc(-c3nnc(C(F)F)o3)cn2)c2cc(Cl)ccc2n1C1CCN(CC(F)(F)C(F)(F)C(F)(F)F)CC1` [Compound 232, 5-chloro-3-((5-(5-(difluoromethyl)-1,3,4-oxadiazole-2-yl)pyridine-2-yl)methyl)-1-(1-(2,2,3,3,4,4,4-heptafluorobutyl)piperidine-4-yl)-1,3-dihydro-2H-benzo[d]imidazole-2-one], the IC50 at HDAC6 human recombinant was 643 nM; against HDAC1, more than 10000 nM.
With `CCC(F)(F)CN1CCC(n2c(=O)n(Cc3ccc(-c4nnc(C(F)F)o4)cn3)c3cc(Cl)ccc32)CC1` [Compound 233, 5-chloro-1-(1-(2,2-difluorobutyl)piperidine-4-yl)-3-((5-(5-(difluoromethyl)-1,3,4-oxadiazole-2-yl)pyridine-2-yl)methyl)-1,3-dihydro-2H-benzo[d]imidazole-2-one], the IC50 is 107 nM on HDAC6 human recombinant (setting [1]) and more than 10000 nM on HDAC1 (setting [2]).
For the molecule `CC(F)(F)CN1CCC(n2c(=O)n(Cc3ccc(-c4nnc(C(F)F)o4)cn3)c3cc(Cl)ccc32)CC1` [Compound 234, 5-chloro-3-((5-(5-(difluoromethyl)-1,3,4-oxadiazole-2-yl)pyridine-2-yl)methyl)-1-(1-(2,2-difluoropropyl)piperidine-4-yl)-1,3-dihydro-2H-benzo[d]imidazole-2-one], the IC50 is 54 nM at HDAC6 human recombinant (setting [1]) and more than 10000 nM at HDAC1 (setting [2]).
For `O=c1n(Cc2ccc(-c3nnc(C(F)F)o3)cn2)c2cc(Cl)ccc2n1C1CCN(CC(F)(F)C(F)F)CC1` [Compound 235, 5-chloro-3-((5-(5-(difluoromethyl)-1,3,4-oxadiazole-2-yl)pyridine-2-yl)methyl)-1-(1-(2,2,3,3-tetrafluoropropyl)piperidine-4-yl)-1,3-dihydro-2H-benzo[d]imidazole-2-one], in that order: 103 nM and more than 10000 nM.
For `O=c1n(Cc2ccc(-c3nnc(C(F)F)o3)cn2)c2cc(Cl)ccc2n1C1CCN(CC(F)(F)F)CC1` [Compound 236, 5-chloro-3-((5-(5-(difluoromethyl)-1,3,4-oxadiazole-2-yl)pyridine-2-yl)methyl)-1-(1-(2,2,2-trifluoroethyl)piperidine-4-yl)-1,3-dihydro-2H-benzo[d]imidazole-2-one], the half-inhibitory concentration (IC50) is 68 nM on HDAC6 human recombinant (setting [1]) and more than 10000 nM at HDAC1 (setting [2]).
As for `CC(C)(C)OC(=O)n1ccc2cc(-c3ccc4c(c3)sc(=O)n4Cc3ccc(-c4nnc(C(F)F)o4)cn3)ccc21` [Compound 237, tert-butyl 5-(3-((5-(5-(difluoromethyl)-1,3,4-oxadiazole-2-yl)pyridine-2-yl)methyl)-2-oxo-2,3-dihydrobenzo[d]thiazole-6-yl)-1H-indole-1-carboxylate], the IC50 was 1140 nM at HDAC6 human recombinant (setting [1]) and more than 10000 nM on HDAC1 (setting [2]).
On to `CC(C)(C)OC(=O)N1CC=C(c2ccc3c(c2)sc(=O)n3Cc2ccc(-c3nnc(C(F)F)o3)cn2)CC1` [Compound 238, tert-butyl 4-(3-((5-(5-(difluoromethyl)-1,3,4-oxadiazole-2-yl)pyridine-2-yl)methyl)-2-oxo-2,3-dihydrobenzo[d]thiazole-6-yl)-3,6-dihydropyridine-1(2H)-carboxylate], for which the IC50 on HDAC6 human recombinant (setting [1]) was 203 nM; on HDAC1 (setting [2]) it was more than 10000 nM.
Consider `O=c1n(Cc2ccc(-c3nnc(C(F)F)o3)cn2)c2cc(F)c(-c3cccc4[nH]ccc34)cc2n1C1CCN(CC(F)(F)F)CC1` [Compound 239, 1-((5-(5-(difluoromethyl)-1,3,4-oxadiazole-2-yl)pyridine-2-yl)methyl)-6-fluoro-5-(1H-indole-4-yl)-3-(1-(2,2,2-trifluoroethyl)piperidine-4-yl)-1,3-dihydro-2H-benzo[d]imidazole-2-one], for which the IC50 was 51 nM on HDAC6 human recombinant (setting [1]) and more than 10000 nM at HDAC1 (setting [2]).
Consider `O=c1n(Cc2ccc(-c3nnc(C(F)F)o3)cn2)c2cc(F)c(-c3cccnc3)cc2n1C1CCN(CC(F)(F)F)CC1` [Compound 240, 1-((5-(5-(difluoromethyl)-1,3,4-oxadiazole-2-yl)pyridine-2-yl)methyl)-6-fluoro-5-(pyridine-3-yl)-3-(1-(2,2,2-trifluoroethyl)piperidine-4-yl)-1,3-dihydro-2H-benzo[d]imidazole-2-one], for which the IC50 is 27 nM at HDAC6 human recombinant (setting [1]) and more than 10000 nM at HDAC1 (setting [2]).
With `O=c1n(Cc2ccc(-c3nnc(C(F)F)o3)cn2)c2cc(F)c(-c3cccc4[nH]ccc34)cc2n1C1CCN(CC(F)(F)C(F)F)CC1` [Compound 241, 1-((5-(5-(difluoromethyl)-1,3,4-oxadiazole-2-yl)pyridine-2-yl)methyl)-6-fluoro-5-(1H-indole-4-yl)-3-(1-(2,2,3,3-tetrafluoropropyl)piperidine-4-yl)-1,3-dihydro-2H-benzo[d]imidazole-2-one], the IC50 was 94 nM on HDAC6 human recombinant (setting [1]) and more than 10000 nM on HDAC1 (setting [2]).
On to `O=c1n(Cc2ccc(-c3nnc(C(F)F)o3)cn2)c2cc(F)c(-c3cccnc3)cc2n1C1CCN(CC(F)(F)C(F)F)CC1` [Compound 242, 1-((5-(5-(difluoromethyl)-1,3,4-oxadiazole-2-yl)pyridine-2-yl)methyl)-6-fluoro-5-(pyridine-3-yl)-3-(1-(2,2,3,3-tetrafluoropropyl)piperidine-4-yl)-1,3-dihydro-2H-benzo[d]imidazole-2-one], for which the IC50 at HDAC6 human recombinant (setting [1]) is 46 nM; on HDAC1 (setting [2]) it was more than 10000 nM.
Turning to `O=C(CO)N1CCC(n2c(=O)n(Cc3ccc(-c4nnc(C(F)F)o4)cn3)c3cc(Cl)ccc32)CC1` [Compound 243, 5-chloro-3-((5-(5-(difluoromethyl)-1,3,4-oxadiazole-2-yl)pyridine-2-yl)methyl)-1-(1-(2-hydroxyacetyl)piperidine-4-yl)-1,3-dihydro-2H-benzo[d]imidazole-2-one], the results for the IC50 at HDAC6 human recombinant (setting [1]) and on HDAC1 (setting [2]) were 17 nM and more than 10000 nM, respectively.
`COC(=O)c1cc2ccc(-c3ccc4c(c3)n(C)c(=O)n4Cc3ccc(-c4nnc(C(F)F)o4)cn3)cc2[nH]1` [Compound 244, methyl 6-(1-((5-(5-(difluoromethyl)-1,3,4-oxadiazole-2-yl)pyridine-2-yl)methyl)-3-methyl-2-oxo-2,3-dihydro-1H-benzo[d]imidazole-5-yl)-1H-indole-2-carboxylate]: the IC50 at HDAC6 human recombinant (setting [1]) was 74 nM; on HDAC1 (setting [2]), more than 10000 nM.
Consider `O=c1oc2ccccc2n1Cc1ccc(-c2nnc(C(F)F)o2)cc1F` [Compound 245, 3-(4-(5-(difluoromethyl)-1,3,4-oxadiazole-2-yl)-2-fluorobenzyl)benzo[d]oxazole-2(3H)-one], for which the results for the IC50 on HDAC6 human recombinant (setting [1]) and at HDAC1 (setting [2]) were 684 nM and more than 10000 nM, respectively.
As to `O=c1oc2ccccc2n1Cc1ccc(-c2nnc(C(F)F)o2)cn1` [Compound 246, 3-((5-(5-(difluoromethyl)-1,3,4-oxadiazole-2-yl)pyridine-2-yl)methyl)benzo[d]oxazole-2(3H)-one], the figures for the IC50 on HDAC6 human recombinant (setting [1]) and at HDAC1 (setting [2]) were 23 nM and more than 10000 nM, respectively.
